These results are taken from ChEMBL document CHEMBL3792356, “Discovery of molluscicidal and cercaricidal activities of 3-substituted quinazolinone derivatives by a scaffold hopping approach using a pseudo-ring based on the intramolecular hydrogen bond formation” (Eur J Med Chem, 2016).

Values after ≈ are worked out from the molar mass of the structure shown.

The test system of the first assay is Schistosoma japonicum. The assay can be described thus: Cercaricidal activity against Schistosoma japonicum infected in Oncomelania hupensis measured after 120 mins by colour television microscopy.
Conditions: not given
It is filed as functional.
`Cc1ccc(-n2cnc3ccc(Cl)cc3c2=O)cc1`: the LC90 worked out at 1.35 ppm.

As to `COc1ccc(-n2cnc3ccc(Cl)cc3c2=O)cc1`, the LC90 stood at 1.23 ppm.

The molecule `O=c1c2cc([N+](=O)[O-])ccc2ncn1-c1ccccc1` gave an LC90 of 2.34 ppm.

In the case of `Cc1ccc(-n2cnc3c(Cl)cc(Cl)cc3c2=O)c(C)c1`, the LC90 is 1.78 ppm.

For the molecule `COc1ccc(-n2cnc3c(Cl)cc(Cl)cc3c2=O)cc1`, the LC90 is given as 3.31 ppm.

Staying with this assay, now noted: Schistosoma japonicum, 2 h.
For orientation: LC50 means the concentration lethal to half of the exposed cells or organisms. As for `Cc1ccc(-n2cnc3ccc(Cl)cc3c2=O)cc1`, the median lethal concentration (LC50) worked out at 1.02 µg/mL (≈ 3.77 µM).

For `COc1ccc(-n2cnc3ccc(Cl)cc3c2=O)cc1`, the LC50 turned out to be 0.95 µg/mL (≈ 3.31 µM).

`O=c1c2cc([N+](=O)[O-])ccc2ncn1-c1ccccc1` gave an LC50 of 1.78 µg/mL (≈ 6.66 µM).

The molecule `Cc1ccc(-n2cnc3c(Cl)cc(Cl)cc3c2=O)c(C)c1` yielded an LC50 of 1.35 µg/mL (≈ 4.23 µM).

For `COc1ccc(-n2cnc3c(Cl)cc(Cl)cc3c2=O)cc1`, the LC50 was determined as 2.51 µg/mL (≈ 7.82 µM).

The subject of another assay is Oncomelania hupensis. The experiment in a line: Molluscicidal activity against Oncomelania hupensis measured after 24 hrs. Type of assay: functional.
Conditions: not given
With `Cc1ccc(-n2cnc3ccc(Cl)cc3c2=O)cc1`, the LC90 worked out at 5.37 ppm.

`COc1ccc(-n2cnc3ccc(Cl)cc3c2=O)cc1` registered an LC90 of 5.01 ppm.

Take `O=c1c2cc([N+](=O)[O-])ccc2ncn1-c1ccccc1`: the LC90 was 9.33 ppm.

As to `Cc1ccc(-n2cnc3c(Cl)cc(Cl)cc3c2=O)c(C)c1`, the LC90 stood at 7.08 ppm.

Turning to `COc1ccc(-n2cnc3c(Cl)cc(Cl)cc3c2=O)cc1`, the LC90 is 13.18 ppm.

Still in this assay, the particulars now being: Oncomelania hupensis, 24 h.
Consider `Cc1ccc(-n2cnc3ccc(Cl)cc3c2=O)cc1`, for which the LC50 came to 4.07 µg/mL (≈ 15 µM).

`COc1ccc(-n2cnc3ccc(Cl)cc3c2=O)cc1` displayed an LC50 of 3.8 µg/mL (≈ 13.3 µM).

The molecule `O=c1c2cc([N+](=O)[O-])ccc2ncn1-c1ccccc1` showed an LC50 of 7.07 µg/mL (≈ 26.5 µM).

With `Cc1ccc(-n2cnc3c(Cl)cc(Cl)cc3c2=O)c(C)c1`, the LC50 worked out at 5.37 µg/mL (≈ 16.8 µM).

`COc1ccc(-n2cnc3c(Cl)cc(Cl)cc3c2=O)cc1` gave an LC50 of 10 µg/mL (≈ 31.1 µM).
